Like-named read-outs stand apart in the source and are kept apart here.
System: recombinant NL4-3 virus (Renilla luciferase) in MT-2 cells
Experiment: HIV cell culture assay (antiviral activity, luciferase readout in infected MT-2 cells)
Assay type: cell-based
Settings: Renilla
Method in brief: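 Nef-deleted NL4-3 carrying Renilla luciferase, produced by 293T transfection, used to infect MT-2 cells for 4–5 days with serial compound dilutions. Live-cell luciferase signal read as infection marker; EC50 from exponential median-effect equation.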

[1] = NL43, read-out: Activity, antiviral activity class, recombinant NL4-3 Renilla luciferase virus in MT-2 cells
[2] = NL43, recombinant NL4-3 Renilla luciferase virus in MT-2 cells

SMILES	EC50 [1] [nM]	EC50 [2] [nM]
CN(C(=O)[C@H](Cc1cc(F)cc(F)c1)NC(=O)NS(=O)(=O)c1ccc(F)cc1F)c1ccc2scnc2c1 [Example ZY-17, (S)—N-(benzo[d]thiazol-5-yl)-3-(3,5-difluorophenyl)-2-(3-((2,4-difluorophenyl)sulfonyl)ureido)-N-methylpropanamide]	100 to 1000	
Cc1ccccc1S(=O)(=O)NC(=O)N[C@@H](Cc1ccc(Cl)cc1Cl)C(=O)N(C)c1ccc2c(c1)OCO2 [Example 74, (S)—N-(benzo[d][1,3]dioxol-5-yl)-3-(2,4-dichlorophenyl)-N-methyl-2-(3-(o-tolylsulfonyl)ureido)propanamide]	1000 to 10000	3880
Cc1ccc(N(C)C(=O)[C@H](Cc2ccccc2)NC(=O)NS(=O)(=O)c2ccccc2C)cc1 [Example CA-82, (S)—N-methyl-3-phenyl-N-(p-tolyl)-2-(3-(o-tolylsulfonyl)ureido)propanamide]	100 to 1000	
CCN(C(=O)[C@H](Cc1ccccc1)NC(=O)NS(=O)(=O)c1cccc(-c2ccsc2)c1)c1ccc(OC)cc1 [Example 151, (S)—N-ethyl-N-(4-methoxyphenyl)-3-phenyl-2-(3-((3-(thiophen-3-yl)phenyl)sulfonyl)ureido)propanamide]	100 to 1000	110
CN(C(=O)[C@H](Cc1ccccc1)NC(=O)NS(=O)(=O)c1cc(Cl)sc1Cl)c1ccc2c(c1)OCO2 [Example 32, (S)—N-(benzo[d][1,3]dioxol-5-yl)-2-(3-((2,5-dichlorothiophen-3-yl)sulfonyl)ureido)-N-methyl-3-phenylpropanamide]	< 100	70
Cc1ccccc1S(=O)(=O)NC(=O)N[C@@H](Cc1cc(F)cc(F)c1)C(=O)N(C)c1cccc2ncccc12 [Example CA-109, (S)-3-(3,5-difluorophenyl)-N-methyl-N-(quinolin-5-yl)-2-(3-(o-tolylsulfonyl)ureido)propanamide]	100 to 1000	370
CN(C(=O)[C@H](Cc1ccccc1)NC(=O)NS(=O)(=O)C(C)(C)C)c1ccc2c(c1)OCO2 [Example 46, (S)—N-(benzo[d][1,3]dioxol-5-yl)-2-(3-(tert-butylsulfonyl)ureido)-N-methyl-3-phenylpropanamide]	1000 to 10000	
CN(C(=O)[C@H](Cc1ccccc1)NC(=O)N(C)S(=O)(=O)c1ccccc1Br)c1ccc2c(c1)OCO2 [Example 47, (S)—N-(benzo[d][1,3]dioxol-5-yl)-2-(3-((2-bromophenyl)sulfonyl)-3-methylureido)-N-methyl-3-phenylpropanamid]	1000 to 10000	
COc1ccc(N(Cc2ccncc2)C(=O)[C@H](Cc2ccccc2)NC(=O)NS(=O)(=O)c2ccccc2C)cc1 [Example ZY-4, (S)—N-(4-methoxyphenyl)-3-phenyl-N-(pyridin-4-ylmethyl)-2-(3-(o-tolylsulfonyl)ureido)propanamide]	1000 to 10000	
CCN(C(=O)[C@H](Cc1ccccc1)NC(=O)NS(=O)(=O)c1ccccc1[N+](=O)[O-])c1ccc(OC)cc1 [Example 113, (S)—N-ethyl-N-(4-methoxyphenyl)-2-(3-((2-nitrophenyl)sulfonyl)ureido)-3-phenylpropanamide]	< 100	
COc1ccc(N(C)C(=O)[C@@H](NC(=O)NS(=O)(=O)c2ccccc2C)[C@@H](C)c2ccccc2)cc1 [Example 197, (2S,3S)—N-(4-methoxyphenyl)-N-methyl-3-phenyl-2-(3-(o-tolylsulfonyl)ureido)butanamide]	10000 to 100000	11500
CN(C(=O)[C@H](Cc1ccccc1)NC(=O)NS(=O)(=O)c1ccccc1-c1ccoc1)c1ccc2c(c1)OCO2 [Example 50, (S)—N-(benzo[d][1,3]dioxol-5-yl)-2-(3-((2-(furan-3-yl)phenyl)sulfonyl)ureido)-N-methyl-3-phenylpropanamide]	100 to 1000	
CN(C(=O)[C@@H](Cc1ccccc1)NC(=O)NS(=O)(=O)c1ccccc1)c1ccc2c(c1)OCO2 [Example 86]	10000 to 100000	
Cc1ccccc1S(=O)(=O)NC(=O)N[C@@H](Cc1ccccc1)C(=O)N(C)c1ccc(C#N)cc1 [Example CA-97, (S)—N-(4-cyanophenyl)-N-methyl-3-phenyl-2-(3-(o-tolylsulfonyl)ureido)propanamide]	100 to 1000	
CCN(C(=O)[C@H](Cc1ccccc1)NC(=O)NS(=O)(=O)c1ccccc1N)c1ccc(OC)cc1 [Example 147, (S)-2-(3-((2-aminophenyl)sulfonyl)ureido)-N-ethyl-N-(4-methoxyphenyl)-3-phenylpropanamide]	< 100	
CN(C(=O)[C@H](Cc1ccccc1)NC(=O)NS(=O)(=O)c1cccc(Cl)c1)c1ccc2c(c1)OCO2 [Example 3, (S)—N-(benzo[d][1,3]dioxol-5-yl)-2-(3-((3-chlorophenyl)sulfonyl)ureido)-N-methyl-3-phenylpropanamide]	100 to 1000	
Cc1ccccc1S(=O)(=O)NC(=O)N[C@@H](Cc1cccc2ccccc12)C(=O)N(C)c1ccc2c(c1)OCO2 [Example 83, (S)—N-(benzo[d][1,3]dioxol-5-yl)-N-methyl-3-(naphthalen-1-yl)-2-(3-(o-tolylsulfonyl)ureido)propanamide]	1000 to 10000	4280

SMILES	EC50 [1] [nM]	EC50 [2] [nM]
CCN(C(=O)[C@H](Cc1ccccc1)NC(=O)NS(=O)(=O)c1cccc(-c2csc(C(=O)O)c2)c1C)c1ccc(OC)cc1 [Example 160]	1000 to 10000	5640
Cc1c(Cl)cccc1S(=O)(=O)NC(=O)N[C@@H](Cc1ccccc1)C(=O)N(C)c1ccc2c(c1)OCO2 [Example 28, (S)—N-(benzo[d][1,3]dioxol-5-yl)-2-(3-((3-chloro-2-methylphenyl)sulfonyl)ureido)-N-methyl-3-phenylpropanamide]	< 100	
CN(C(=O)[C@H](Cc1ccccc1)NC(=O)NS(=O)(=O)c1ccccc1)c1ccc(Cl)cc1 [Example 88]	100 to 1000	450
Cc1ccccc1S(=O)(=O)NC(=O)N[C@@H](Cc1ccccc1)C(=O)N(C)c1ccc(F)c(C(N)=O)c1 [Example CA-100, (S)-2-fluoro-5-(N-methyl-3-phenyl-2-(3-(o-tolylsulfonyl)ureido)propanamido)benzamide]	1000 to 10000	
CN(C(=O)[C@H](Cc1ccccc1)NC(=O)NS(=O)(=O)c1ccccc1)c1ccc2c(c1)CCC2 [Example 208, (S)—N-(2,3-dihydro-1H-inden-5-yl)-N-methyl-3-phenyl-2-(3-(phenylsulfonyl)ureido)propanamide]	100 to 1000	
Cc1ccccc1S(=O)(=O)NC(=O)N[C@@H](Cc1ccccc1)C(=O)N(c1ccccc1)C(C)C [Example CA-70, (S)—N-isopropyl-N, 3-diphenyl-2-(3-(o-tolylsulfonyl)ureido)propanamide]	100 to 1000	
CC(=O)Nc1ccc(C[C@H](NC(=O)NS(=O)(=O)c2ccccc2C)C(=O)N(C)c2ccc3c(c2)OCO3)cc1 [Example 73, (S)-3-(4-acetamidophenyl)-N-(benzo[d][1,3]dioxol-5-yl)-N-methyl-2-(3-(o-tolylsulfonyl)ureido)propanamide]		> 100000
Cc1ccccc1S(=O)(=O)NC(=O)N[C@@H](Cc1ccc(OCc2ccccc2)cc1)C(=O)N(C)c1ccc2c(c1)OCO2 [Example 68, (S)—N-(benzo[d][1,3]dioxol-5-yl)-3-(4-(benzyloxy)phenyl)-N-methyl-2-(3-(o-tolylsulfonyl)ureido)propanamide]	10000 to 100000	16000
Cc1ccccc1S(=O)(=O)NC(=O)N[C@@H](Cc1ccccc1)C(=O)N(C)c1ccccc1 [Example CA-67, (S)—N-methyl-N, 3-diphenyl-2-(3-(o-tolylsulfonyl)ureido)propanamide]	100 to 1000	490
Cc1nc2cc(N(C)C(=O)[C@H](Cc3ccccc3)NC(=O)NS(=O)(=O)c3ccccc3C)ccc2s1 [Example CA-87, (S)—N-methyl-N-(2-methylbenzo[d]thiazol-5-yl)-3-phenyl-2-(3-(o-tolylsulfonyl)ureido)propanamide]	100 to 1000	
Cc1nn(C)c(Cl)c1S(=O)(=O)NC(=O)N[C@@H](Cc1ccccc1)C(=O)N(C)c1ccc2c(c1)OCO2 [Example 33, (S)—N-(benzo[d][1,3]dioxol-5-yl)-2-(3-((5-chloro-1,3-dimethyl-1H-pyrazol-4-yl)sulfonyl)ureido)-N-methyl-3-phenylpropanamide]	100 to 1000	210
CCN(C(=O)[C@H](Cc1ccccc1)NC(=O)NS(=O)(=O)c1cc(Br)ccc1C)c1ccc(OC)cc1 [Example 120, (S)-2-(3-((5-bromo-2-methylphenyl)sulfonyl)ureido)-N-ethyl-N-(4-methoxyphenyl)-3-phenylpropanamide]	100 to 1000	
COc1ccc(-c2ccccc2S(=O)(=O)NC(=O)N[C@@H](Cc2ccccc2)C(=O)N(C)c2ccc3c(c2)OCO3)cn1 [Example 126, (S)—N-(benzo[d][1,3]dioxol-5-yl)-2-(3-((2-(6-methoxypyridin-3-yl)phenyl)sulfonyl)ureido)-N-methyl-3-phenylpropanamide]	10000 to 100000	
CN(C(=O)[C@H](Cc1ccccc1)NC(=O)NS(=O)(=O)c1cc(Br)ccc1Br)c1ccc2c(c1)OCO2 [Example 12, (S)—N-(benzo[d][1,3]dioxol-5-yl)-2-(3-((2,5-dibromophenyl)sulfonyl)ureido)-N-methyl-3-phenylpropanamide]	< 100	
CCN(C(=O)[C@H](Cc1ccccc1)NC(=O)NS(=O)(=O)c1ccccc1C)c1ccccc1 [Example CA-68, (S)—N-ethyl-N, 3-diphenyl-2-(3-(o-tolylsulfonyl)ureido)propanamide]	100 to 1000	
Cc1ccccc1S(=O)(=O)NC(=O)N[C@@H](Cc1ccccc1)C(=O)N(C)c1cccc(C#N)c1 [Example CA-91, (S)—N-(3-cyanophenyl)-N-methyl-3-phenyl-2-(3-(o-tolylsulfonyl)ureido)propanamide]	100 to 1000	
CN(C(=O)[C@H](Cc1cc(F)cc(F)c1)NC(=O)NS(=O)(=O)c1ccccc1F)c1ccc2scnc2c1 [Example ZY-16, (S)—N-(benzo[d]thiazol-5-yl)-3-(3,5-difluorophenyl)-2-(3-((2-fluorophenyl)sulfonyl)ureido)-N-methylpropanamide]	< 100	
